Patent publication US12233069B2, “Oral solid tablet comprising Bruton's Tyrosine Kinase inhibitor and preparation method therefor” (BEIGENE SWITZERLAND GMBH, priority 2019, dated 2025)
Entries after “also recorded” stand apart in the source; their conditions may differ.

Assays:
[1] = Hygroscopicity of the active pharmaceutical ingredient; format: physicochemical
[2] = Solubility / biopharmaceutical classification system class; format: physicochemical

For C=CC(=O)N1CCC([C@@H]2CCNc3c(C(N)=O)c(-c4ccc(Oc5ccccc5)cc4)nn32)CC1 [Zanubrutinib, (S)-7-[4-(1-acryloylpiperidine)]-2-(4-phenoxyphenyl)-4,5,6,7-tetrahydropyrazolo[1,5-a] pyrimidine-3-carboxamide], which hygroscopicity [1] is on record?
The hygroscopicity was “slightly hygroscopic”.

What about the “biopharmaceutical classification system class” value [2] of the same compound?
Its value is “class II (low solubility, and high permeability)”.

What about the solubility ([2]; active pharmaceutical ingredient) of the same compound?
The solubility was “poor solubility; also recorded: pH-dependent solubility”.
